# Peptide text beside a SMILES is read from it.
# System: Botrytis cinerea (B05.10)
# Test: Resazurin antifungal assay of 180 alpha-factor peptide variants towards Botrytis (Example 2)
# Format: cell-based
# Conditions: % inhibition of fungal growth, Botrytis conidia, resazurin; for Inhibition at 10 μM: peptide 10 μM; for Inhibition at 20 μM: peptide 20 μM; for Inhibition at 50 μM: peptide 50 μM; for Inhibition at 100 μM: peptide 100 μM
# Procedure, shortened: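 Resazurin viability read-out (570/620 nm fluorescence) after a 24 h, 20° C incubation of B05.10 conidia, 5000 per well, with peptide at final 10-100 μM. Growth inhibition (%) was derived by subtracting conidia-only fluorescence; four replicates per treatment.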
SMILES,Inhibition at 10 μM,Inhibition at 20 μM,Inhibition at 50 μM,Inhibition at 100 μM
CSCC[C@H](NC(=O)[C@@H]1CCCN1C(=O)[C@H](CCC(N)=O)NC(=O)CNC(=O)[C@@H]1CCCN1C(=O)[C@H](CCCCN)NC(=O)[C@H](CC(C)C)NC(=O)[C@H](C)NC(=O)[C@H](CC(C)C)NC(=O)[C@H](Cc1ccc(O)cc1)NC(=O)[C@H](Cc1c[nH]cn1)NC(=O)[C@@H](N)CCCCN)C(=O)N[C@@H](Cc1ccc(O)cc1)C(=O)O [compound 103] (H-KHYLALKPGQPMY-OH; N-terminus and C-terminus assumed),<90%,<90%,<90%,98.77%
CC[C@H](C)[C@H](NC(=O)CNC(=O)[C@H](CCCNC(=N)N)NC(=O)[C@@H](N)CCCCN)C(=O)N[C@@H](CC(N)=O)C(=O)N[C@@H](CC(C)C)C(=O)N[C@@H](CCCCN)C(=O)N1CCC[C@H]1C(=O)NCC(=O)N[C@@H](CCC(N)=O)C(=O)N1CCC[C@H]1C(=O)N[C@@H](CCSC)C(=O)N[C@@H](Cc1ccc(O)cc1)C(=O)O [compound 104] (H-KRGINLKPGQPMY-OH; N-terminus and C-terminus assumed),<90%,<90%,<90%,99.59%
CC[C@H](C)[C@H](NC(=O)[C@H](Cc1c[nH]cn1)NC(=O)[C@@H](N)Cc1c[nH]c2ccccc12)C(=O)N[C@@H](CC(C)C)C(=O)N[C@@H](CCCNC(=N)N)C(=O)N[C@@H](Cc1ccccc1)C(=O)N[C@@H](CCCCN)C(=O)N[C@@H](CC(N)=O)C(=O)NCC(=O)N[C@@H](CCSC)C(=O)N1CCC[C@H]1C(=O)N[C@@H](CCSC)C(=O)N[C@@H](Cc1ccc(O)cc1)C(=O)O [compound 105] (H-WHILRFKNGMPMY-OH; N-terminus and C-terminus assumed),<90%,<90%,<90%,100%
CSCC[C@H](NC(=O)[C@@H]1CCCN1C(=O)[C@H](CCC(=O)O)NC(=O)CNC(=O)[C@H](CCCCN)NC(=O)[C@H](CCCCN)NC(=O)[C@H](CC(C)C)NC(=O)[C@H](CCC(N)=O)NC(=O)[C@@H](NC(=O)[C@H](Cc1c[nH]c2ccccc12)NC(=O)[C@H](Cc1c[nH]cn1)NC(=O)[C@@H](N)Cc1c[nH]c2ccccc12)C(C)C)C(=O)N[C@@H](Cc1ccc(O)cc1)C(=O)O [compound 106] (H-WHWVQLKKGEPMY-OH; N-terminus and C-terminus assumed),<90%,<90%,<90%,100%
CSCC[C@H](NC(=O)[C@@H]1CCCN1C(=O)[C@H](CCC(N)=O)NC(=O)CNC(=O)[C@@H]1CCCN1C(=O)[C@H](CCCCN)NC(=O)[C@H](CC(C)C)NC(=O)[C@H](CO)NC(=O)[C@H](CC(C)C)NC(=O)[C@H](Cc1ccccc1)NC(=O)[C@H](Cc1c[nH]cn1)NC(=O)[C@@H](N)CCCCN)C(=O)N[C@@H](Cc1ccc(O)cc1)C(=O)O [compound 107] (H-KHFLSLKPGQPMY-OH; N-terminus and C-terminus assumed),<90%,<90%,<90%,98.74%
CSCC[C@H](NC(=O)[C@@H]1CCCN1C(=O)[C@H](CCC(N)=O)NC(=O)CNC(=O)[C@H](Cc1ccc(O)cc1)NC(=O)[C@H](CC(N)=O)NC(=O)[C@H](CC(C)C)NC(=O)[C@H](CCCCN)NC(=O)[C@H](CC(C)C)NC(=O)[C@H](Cc1c[nH]c2ccccc12)NC(=O)[C@H](Cc1c[nH]cn1)NC(=O)[C@@H](N)Cc1c[nH]c2ccccc12)C(=O)N[C@@H](Cc1ccc(O)cc1)C(=O)O [compound 108] (H-WHWLKLNYGQPMY-OH; N-terminus and C-terminus assumed),<90%,<90%,<90%,100%
CC[C@H](C)[C@H](NC(=O)[C@H](CCC(N)=O)NC(=O)[C@H](CC(C)C)NC(=O)[C@H](Cc1c[nH]c2ccccc12)NC(=O)[C@H](CCCNC(=N)N)NC(=O)[C@@H](N)CCCCN)C(=O)N[C@@H](CCCNC(=N)N)C(=O)N1CCC[C@H]1C(=O)NCC(=O)N[C@@H](CCC(=O)O)C(=O)N1CCC[C@H]1C(=O)N[C@@H](CCSC)C(=O)N[C@@H](Cc1ccc(O)cc1)C(=O)O [compound 109] (H-KRWLQIRPGEPMY-OH; N-terminus and C-terminus assumed),<90%,<90%,<90%,98.64%
CC[C@H](C)[C@H](NC(=O)[C@H](CO)NC(=O)[C@H](CC(C)C)NC(=O)[C@H](Cc1c[nH]c2ccccc12)NC(=O)[C@H](Cc1c[nH]cn1)NC(=O)[C@@H](N)Cc1c[nH]c2ccccc12)C(=O)N[C@@H](CCCCN)C(=O)N1CCC[C@H]1C(=O)NCC(=O)N[C@@H](CCC(N)=O)C(=O)NCC(=O)N[C@@H](CCSC)C(=O)N[C@@H](Cc1ccc(O)cc1)C(=O)O [compound 110] (H-WHWLSIKPGQGMY-OH; N-terminus and C-terminus assumed),–,–,<90%,97.94%
CSCC[C@H](NC(=O)[C@@H]1CCCN1C(=O)[C@H](CO)NC(=O)CNC(=O)[C@@H]1CCCN1C(=O)CNC(=O)[C@H](Cc1ccccc1)NC(=O)[C@H](CCC(N)=O)NC(=O)[C@@H](NC(=O)[C@H](Cc1c[nH]c2ccccc12)NC(=O)[C@H](Cc1c[nH]cn1)NC(=O)[C@@H](N)Cc1c[nH]c2ccccc12)C(C)C)C(=O)N[C@@H](Cc1ccc(O)cc1)C(=O)O [compound 111] (H-WHWVQFGPGSPMY-OH; N-terminus and C-terminus assumed),<90%,<90%,<90%,96.65%
CSCC[C@H](NC(=O)[C@@H]1CCCN1C(=O)[C@H](CCC(N)=O)NC(=O)CNC(=O)[C@@H]1CCCN1C(=O)[C@H](CCCCN)NC(=O)[C@H](CC(C)C)NC(=O)[C@H](CCCNC(=N)N)NC(=O)[C@H](CC(C)C)NC(=O)[C@H](Cc1ccccc1)NC(=O)[C@H](Cc1c[nH]cn1)NC(=O)[C@@H]1CCCN1)C(=O)N[C@@H](Cc1ccc(O)cc1)C(=O)O [compound 112] (H-PHFLRLKPGQPMY-OH; N-terminus and C-terminus assumed),–,–,<90%,99.57%
CSCC[C@H](NC(=O)[C@@H]1CCCN1C(=O)[C@H](CCC(N)=O)NC(=O)CNC(=O)[C@@H]1CCCN1C(=O)[C@H](CCCCN)NC(=O)[C@H](CC(C)C)NC(=O)[C@H](CC(N)=O)NC(=O)[C@H](CC(C)C)NC(=O)[C@H](CC(C)C)NC(=O)[C@H](Cc1c[nH]cn1)NC(=O)[C@@H](N)CCCCN)C(=O)N[C@@H](Cc1ccc(O)cc1)C(=O)O [compound 113] (H-KHLLNLKPGQPMY-OH; N-terminus and C-terminus assumed),–,–,<90%,98.44%
CC[C@H](C)[C@H](NC(=O)[C@H](Cc1c[nH]c2ccccc12)NC(=O)[C@H](Cc1c[nH]cn1)NC(=O)[C@@H](N)Cc1c[nH]c2ccccc12)C(=O)N[C@@H](CC(N)=O)C(=O)N[C@@H](CC(C)C)C(=O)N[C@@H](Cc1c[nH]c2ccccc12)C(=O)N1CCC[C@H]1C(=O)NCC(=O)N[C@@H](CCC(N)=O)C(=O)N1CCC[C@H]1C(=O)N[C@@H](CCSC)C(=O)N[C@@H](Cc1ccc(O)cc1)C(=O)O [compound 114] (H-WHWINLWPGQPMY-OH; N-terminus and C-terminus assumed),–,–,<90%,100%
CSCC[C@H](NC(=O)[C@@H]1CCCN1C(=O)[C@H](CCC(N)=O)NC(=O)CNC(=O)[C@H](CC(C)C)NC(=O)[C@H](CCCCN)NC(=O)[C@H](CC(C)C)NC(=O)[C@H](CCC(N)=O)NC(=O)[C@H](CC(C)C)NC(=O)[C@@H](NC(=O)[C@H](CCCCN)NC(=O)[C@@H](N)CCCCN)C(C)C)C(=O)N[C@@H](Cc1ccc(O)cc1)C(=O)O [compound 115] (H-KKVLQLKLGQPMY-OH; N-terminus and C-terminus assumed),–,–,<90%,99.72%
CSCC[C@H](NC(=O)[C@@H]1CCCN1C(=O)[C@H](CCC(N)=O)NC(=O)CNC(=O)[C@@H]1CCCN1C(=O)[C@H](CCCCN)NC(=O)[C@H](Cc1ccccc1)NC(=O)[C@H](CCCCN)NC(=O)[C@H](CC(C)C)NC(=O)[C@H](CC(=O)O)NC(=O)[C@H](Cc1c[nH]cn1)NC(=O)[C@@H](N)CCCCN)C(=O)N[C@@H](Cc1ccc(O)cc1)C(=O)O [compound 116] (H-KHDLKFKPGQPMY-OH; N-terminus and C-terminus assumed),–,–,<90%,93.51%
CSCC[C@H](NC(=O)[C@@H]1CCCN1C(=O)[C@H](CCC(N)=O)NC(=O)CNC(=O)[C@@H]1CCCN1C(=O)[C@H](CCCCN)NC(=O)[C@H](CC(C)C)NC(=O)[C@H](CCC(N)=O)NC(=O)CNC(=O)[C@H](CO)NC(=O)[C@H](CCC(N)=O)NC(=O)[C@@H](N)Cc1c[nH]c2ccccc12)C(=O)N[C@@H](Cc1ccc(O)cc1)C(=O)O [compound 117] (H-WQSGQLKPGQPMY-OH; N-terminus and C-terminus assumed),–,–,<90%,<90%
CSCC[C@H](NC(=O)[C@H](Cc1c[nH]cn1)NC(=O)[C@@H](N)Cc1c[nH]c2ccccc12)C(=O)N[C@@H](CC(C)C)C(=O)N[C@@H](CC(N)=O)C(=O)N[C@@H](Cc1ccccc1)C(=O)N[C@@H](CCCCN)C(=O)N1CCC[C@H]1C(=O)NCC(=O)N[C@@H](CCC(N)=O)C(=O)N1CCC[C@H]1C(=O)N[C@@H](CCSC)C(=O)N[C@@H](Cc1ccc(O)cc1)C(=O)O [compound 118] (H-WHMLNFKPGQPMY-OH; N-terminus and C-terminus assumed),–,–,<90%,<90%
